# Results: ChEMBL document CHEMBL1136625, “Substituted quinolines induce inhibition of proliferation of HTLV-1 infected cells” (2003)
# Tested on: Human T-cell leukemia virus type I
# Assay: Inhibitory activity against human T-lymphotropic virus type 1 (HTLV-1) infected HUT-102 cells at 10 uM
# Format: functional
# Settings: Primate T-lymphotropic virus 1, HuT-102
row,SMILES,inhibition at 10 µM [%]
1,COc1ccc(/C=C/c2ccc3ccccc3n2)cc1OC,0
2,COc1ccc(C(O)Cc2ccc3ccccc3n2)cc1OC (centres undefined),0
3,C(=C\c1ccc2ccccc2n1)/c1ccccc1,0
4,COC(=O)/C=C/c1ccc2ccccc2n1,4
5,OC/C=C/c1ccc2ccccc2n1,0
6,COC(=O)/C=C/c1ccc2cc(C)ccc2n1,45
7,BrC(Br)=Cc1ccc2ccccc2n1,0
8,OC(c1ccc2ccccc2n1)C1CC1 (centres undefined),0
9,CCCCCc1ccc2ccccc2n1,0
10,CC1OC1c1ccc2ccccc2n1 (centres undefined),0
11,CC/C=C/c1ccc2ccccc2n1,0
12,C[Si](C)(C)C#Cc1ccc2ccccc2n1,87
13,CCCCCCCCCCCC/C=C/c1ccc2ccccc2n1,6
14,C=Cc1ccc2ccccc2n1,87
15,c1ccc(C2OC2c2ccc3ccccc3n2)cc1 (centres undefined),0
16,[O-][n+]1c(/C=C/c2ccccc2)ccc2ccccc21,86
17,c1ccc2nc(CCc3ccc4c(c3)OCO4)ccc2c1,50
18,OC(Cc1ccc2ccccc2n1)c1ccccc1 (centres undefined),16
19,CCCCCCCCCCCCCCc1ccc2ccccc2n1,12
20,CC(C)c1ccc2ccccc2n1,0
21,CC(O)Cc1ccc2cccc(O)c2n1 (centres undefined),85
22,CCCc1ccc2ccccc2n1,0
23,C(#Cc1cnc2ccccc2c1)CCC#Cc1cnc2ccccc2c1,82
24,CCC/C=C/c1ccc2ccccc2n1,46
25,O=C/C=C/c1ccc2ccccc2n1,34
26,c1ccc(-c2ccc3ccccc3n2)cc1 [2-PHENYLQUINOLINE],0

# Organism: Homo sapiens
# Assay: Inhibitory activity against human T-lymphotropic virus type 1 (HTLV-1) infected HUT-102 cells at 50 uM
# Format: functional
# Settings: not given
row,SMILES,inhibition at 50 µM [%]
1,O=[N+]([O-])/C=C/c1ccc2ccccc2n1,0
2,C(=C\c1ccc2ccccc2n1)/c1ccc2ccccc2n1,0
3,CC(=O)Cc1ccc2ccccc2n1,0
